This note sets out measurements from US20040062782A1, “Addition of insect repellent during rinse cycle” (priority 2002, published 2004).

In this assay the test system is insects. The assay is described as follows: Insect repellence of articles treated with DEET during the rinse cycle of an automated washing machine. It is filed as in vivo. As to the method: The present invention centers around adding a insect repellent to articles during the rinse cycle of a washing machine. During the rinse cycle, detergent and stains are dissolved into the fluid medium, while the insect repellent is added to the fluid medium and disseminates throughout the fluid medium and articles within the washing machine and is retained by the contents of the washing machine as the fluid medium is partially removed. As the damp articles are removed from the washing machine and subsequently dried, the insect repellent is retained therein as the fluid medium is removed. While there are various application rates of DEET that produce the desired effect of repelling insects from articles under different conditions, it has been found sufficient to provide along the order of 1 fluid ounce of DEET to the articles during the rinse cycle of an automated washing machine. […] It is also within the scope and spirit of the present invention to add […] more than 1 fluid ounce to increase the concentration of DEET retained by the articles after the rinse cycle is complete. For example, if the articles may be exposed to elevated temperatures for an extended period, say 2 hours or more, the amount of DEET added during the rinse cycle may be higher to compensate for the higher amount of DEET emanating from the articles at the elevated temperatures. […] However, higher or lower ratios may be utilized depending upon the conditions of intended use of the articles or the intended duration of insect repellence. As discussed above, the ratio may be […] along the lines of 1:1 to 2:1 to impart insect repellence in accordance with increased exposure to elevated temperatures, and/or to provide insect repellence during a longer duration.

Take `CCN(CC)C(=O)c1cccc(C)c1` [DEET, N,N-diethyl-m-toluamide]: the “insect repellence (duration) while the article is being used” value (on the order of 1 fluid ounce of DEET added to the articles during the rinse cycle, article in use) is “approximately 24 hours”. Further, the “extended insect repellence (duration) for stored articles” value (on the order of 1 fluid ounce of DEET added to the articles during the rinse cycle, stored articles) was “approximately one month”. For the same molecule, the “repelling insects from the articles” value (ratio of 4:1 to 5:1 (in fluid ounces) of fabric softener and/or other components to DEET, added to the rinse cycle) is on record as “provides the desired effect of repelling insects from the articles”.
